Data as given in patent US20200171022A1, “FLT3 INHIBITORS FOR IMPROVING PAIN TREATMENTS BY OPIOIDS” (INSERM (Institut National de la Santé et da la Recherche …, priority 2017, published 2020).

What was measured:
Male Sprague-Dawley rats [1] = assay: Potentiation of morphine-induced analgesia and morphine-dose sparing, paw pressure test (Example 4); settings: for pressure exerted on the hindpaw to obtain withdrawal: BDT001 1 mg/kg, morphine 1.5 mg/kg, mean±S.E.M., 6 animals, saline 250±7.4 g
Method: (§1) Paw pressure test: Mechanical hyperalgesia was measured as the threshold to a noxious mechanical stimulus. […] Briefly, a constantly increasing pressure is applied to the rat hind paw until vocalization occurs. A Basile analgesimeter (Bioseb, France; stylus tip diameter, 1 mm) was used. A 600-g cut-off value was determined to prevent tissue damage.
To evaluate the group effects of treatments, two-way ANOVA with repeated measurements were performed followed by Dunnett's post-hoc test. Newman-Keul's test was used for multiple comparisons between groups. A difference was accepted as significant if the probability that it occurred by chance alone was less than 5% (P<0.05).

Male Sprague-Dawley rats [2] = assay: Tolerance to morphine analgesia after chronic morphine treatment, paw pressure test (Example 5); type: in vivo, rat; settings: morphine 2 mg/kg s.c. twice daily for 4 days, D0 to D4, control animals
Method: Rats were kept under controlled environmental conditions (22° C., 60% relative humidity, 12 h light/dark cycle with lights on at 7:00 A.M., food and water ad libitum). To limit the stress induced by the experimental procedure, the general plan for an experimental phase was as follows: • arrival and housing of the animals: 4 days; • acclimatization of the animals for 10 days to the experimental conditions in order to avoid any possibility of measurement bias being induced by stress; • evaluation of nociceptive threshold baseline • repeated opioid administration and evaluation of treatment effects
as §1
Intrathecal injection was performed via manual lumbar puncture over one minute under anesthesia (isoflurane).
Data are presented as mean±S.E.M. To evaluate the time-course effects of treatments and individual group comparisons, one-way and two-way ANOVA with repeated measurements were performed followed by Dunnett's post hoc test. Bonferroni's test was used for multiple comparisons between groups. […]

wild-type (Flt3+/+) mice = assay: Mechanical pain hypersensitivity after repeated morphine, von Frey test (Example 3); settings: morphine 10 mg/kg twice a day for 4 days, compared to saline
Method: Experiments were performed in male mice carrying a homozygous deletion of Flt3 (F1t3KO mice)^24 and their littermates (WT) weighing 25-30 g. […] Animals were maintained in a climate-controlled room on a 12 h light/dark cycle and allowed access to food and water ad libitum. To limit the stress induced by the experimental procedure, the general plan for an experimental phase was as follows: • arrival and housing of the animals: 4 days; • evaluation of nociceptive threshold baseline; • repeated opioid administration and evaluation of treatment effects
Filaments were applied perpendicularly to the plantar surface of the paw. The 50% paw withdrawal threshold was determined in grams by the Dixon nonparametric test. The protocol was repeated until three changes in behavior occurred.
(§2) Data are presented as mean±S.E.M. To evaluate the time-course effects of treatments and individual group comparisons, one-way and two-way ANOVA with repeated measurements were performed followed by Dunnett's post hoc test. Bonferroni's test was used for multiple comparisons between groups. A difference was accepted as significant if the probability that it occurred by chance alone was less than 5% (P<0.05).

Male Sprague-Dawley rats [3] = assay: Morphine-induced mechanical pain hypersensitivity and latent pain sensitization, paw pressure test (Example 6); settings: morphine 2 mg/kg twice daily for 4 days; observed on D2, back to baseline on D9
Method: Rats were kept under controlled environmental conditions (22° C., 60% relative humidity, 12 h light/dark cycle with lights on at 7:00 A.M., food and water ad libitum). To limit the stress induced by the experimental procedure, the general plan for an experimental phase was as follows: • arrival and housing of the animals: 4 days; • acclimation of the animals for 10 days to the experimental conditions in order to avoid any possibility of measurement bias being induced by stress; • evaluation of nociceptive threshold baseline • repeated opioid administration and evaluation of treatment effects
Mechanical hyperalgesia was measured as the threshold to a noxious mechanical stimulus. […] Briefly, a constantly increasing pressure is applied to the rat hind paw until vocalization occurs. A Basile analgesimeter (Bioseb, France; stylus tip diameter, 1 mm) was used. A 600-g cut-off value was determined to prevent tissue damage.
as §2

Row | SMILES | pressure exerted on the hindpaw to obtain withdrawal (Male Sprague-Dawley rats [1]; 30 min after administration) | morphine-dose sparing effect (Male Sprague-Dawley rats [1]; BDT001 1 mg/kg i.p.) | analgesia by itself (Male Sprague-Dawley rats [1]; BDT001 1 mg/kg i.p. alone, 30 min after administration) | morphine-induced analgesia (percentage of MPE) on repeated morphine administration (Male Sprague-Dawley rats [2]) | nociceptive threshold (mechanical pain hypersensitivity) after repeated morphine (wild-type (Flt3+/+) mice) | morphine-induced analgesia (area under the curve) (Male Sprague-Dawley rats [1]; morphine 0.5, 1, 1.5 or 2 mg/kg s.c. alone) | nociceptive threshold (pain hypersensitivity) in morphine-treated animals (Male Sprague-Dawley rats [3])
1 | O=C(Nc1cc(Cl)ccc1O)c1cccc(S(=O)(=O)N2CCCCC2)c1 [BDT001, N-(5-chloro-2-hydroxyphenyl)-3-(piperidin-1-ylsulfonyl)benzamide] | 252.5 ± 9.0 g | 30% | did not produced analgesia by itself | – | – | – | –
2 | CN1CC[C@]23c4c5ccc(O)c4O[C@H]2[C@@H](O)C=C[C@H]3[C@H]1C5 [morphine] | 502.5 ± 20.0 g | – | – | induced a progressive decrease in morphine-induced analgesia | induced a decrease in the nociceptive threshold | induced analgesia in a dose-dependent manner | significant decrease in the nociceptive threshold
